Data from US8410119B2, “Fused-aryl and heteroaryl derivatives as modulators of metabolism and the prophylaxis and treatment of disorders related thereto” (Arena Pharmaceuticals, Inc., priority 2003, dated 2013).

Tests used:
RUP3 = molecular target: T1, RUP3 (Homo sapiens, UniProt Q8TDV5); assay: RUP3 dose responses in melanophores; format: cell-based; details: melanophores transfected with RUP3 expression vector
T1 construct: read from the listing, own knowledge; expressed in transfected cells; host or cells: melanophores, electroporated with the RUP3 expression vector (pCMV)
T1 sequence (Q8TDV5 with tags, fused parts or gaps): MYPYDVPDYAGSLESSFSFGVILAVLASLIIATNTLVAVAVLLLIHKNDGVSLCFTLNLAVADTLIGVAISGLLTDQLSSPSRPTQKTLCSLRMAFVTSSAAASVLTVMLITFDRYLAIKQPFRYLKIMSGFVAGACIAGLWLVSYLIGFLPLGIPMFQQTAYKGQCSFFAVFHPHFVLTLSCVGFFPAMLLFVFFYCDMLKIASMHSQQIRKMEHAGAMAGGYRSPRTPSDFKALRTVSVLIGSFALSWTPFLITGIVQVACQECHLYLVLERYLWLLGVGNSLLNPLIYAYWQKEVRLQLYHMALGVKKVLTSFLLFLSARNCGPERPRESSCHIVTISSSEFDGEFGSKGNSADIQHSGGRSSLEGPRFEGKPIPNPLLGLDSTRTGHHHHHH
Procedure: Protocol for RUP3 Dose Responses in Melanophores
Melanophores are maintained in culture as reported by Potenza, M. N. and Lerner, M. R., in Pigment Cell Research, Vol. 5, 372-378, 1992 and transfected with the RUP3 expression vector (pCMV) using electroporation. Following electroporation, the transfected cells are plated into 96 well plates for the assay. The cells are then allowed to grow for 48 hours in order to both recover from the electroporation procedure and attain maximal receptor expression levels.
On the assay day, the growth medium on the cells is replaced with serum-free buffer containing 10 nM melatonin. The melatonin acts via an endogenous Gi-coupled GPCR in the melanophores to lower intracellular cAMP levels. In response to lowered cAMP levels, the melanophores translocate their pigment to the center of the cell. The net effect of this is a significant decrease in the absorbance reading of the cell monolayer in the well, measured at […].
After a 1-hour incubation in melatonin, the cells become completely pigment-aggregated. At this point a baseline absorbance reading is collected. Serial dilutions of test compounds are then added to the plate and compounds that stimulate RUP3 produce increases in intracellular cAMP levels. In response to these increased cAMP levels, the melanophores translocate their pigment back into the cell periphery. After one hour, stimulated cells are fully pigment-dispersed. The cell monolayer in the dispersed state absorbs much more light in the 600-650 nm range. The measured increase in absorbance compared to the baseline reading allows one to quantitate the degree of receptor stimulation and plot a dose-response curve.
The compounds in the above examples were screened using the melanophore assay.

Male Sprague Dawley rats = assay: Oral glucose tolerance test (oGTT) in rats; format: in vivo; details: rat, p.o.; for Mean % inhibition of glucose excursion: dextrose 2 g/kg, mean of six animals; for Effect on blood glucose after challenge with glucose: result in words
Procedure: In Vivo Effects of RUP3 Agonists on Glucose Homeostasis in Rats
A. Oral Glucose Tolerance Test (oGTT)
Male Sprague Dawley rats weighing approximately 200 g-250 g were fasted for 15 hours and randomly grouped (n=6) to receive a RUP3 agonist (Compounds A194, A214 or D4) at 3, 10 or 30 mg/kg. Compounds were delivered orally via a gavage needle (p.o., volume 3 mL/kg). At time 0, levels of blood glucose were assessed using a glucometer (Elite XL, Bayer), and rats were administered either vehicle (20% hydroxypropyl-beta-cyclodextrin) or test compound. Thirty minutes after administration of test compound, levels of blood glucose were again assessed, and rats were administered dextrose orally at a dose of 2 g/kg. Blood glucose measurements were then taken 30 min, 60 min, and 120 min after this time.

Compound | EC50 (RUP3) [nM] | Mean % inhibition of glucose excursion (Male Sprague Dawley rats; dose 30 mg/kg) | Effect on blood glucose after challenge with glucose (Male Sprague Dawley rats) | Mean % inhibition of glucose excursion (Male Sprague Dawley rats; dose 10 mg/kg)
CC(C)OC(=O)N1CCC(Oc2ncnc3c2cnn3-c2ccc(S(C)(=O)=O)cc2)CC1 [Compound A5, 4-[1-(4-Methanesulfonyl-phenyl)-1H-pyrazolo[3,4-d]pyrimidin-4-yloxy]-piperidine-1-carboxylic acid isopropyl ester] | 12.7 |  |  | 
CC(C)OC(=O)N1CCC(Oc2ncnc3c(-c4ccc(S(C)(=O)=O)cc4)noc23)CC1 [Compound D4, 4-[3-(4-methanesulfonyl-phenyl)-isoxazolo[4,5-d]pyrimidin-7-yloxy]-piperidine-1-carboxylic acid isopropyl ester] |  | 12%, (30) | lowered blood glucose after challenge with glucose | 
CC(C)(C)OC(=O)N1CCC(Oc2ncnc3c2nnn3-c2ccc(S(C)(=O)=O)cc2)CC1 [Compound C1, 4-[3-(4-Methanesulfonyl-phenyl)-3H-[1,2,3]triazolo[4,5-d]pyrimidin-7-yloxy]-piperidine-1-carboxylic acid tert-butyl ester] | 13 |  |  | 
CC(C)OC(=O)N1CCC(Sc2ncnc3c2cnn3-c2ccc(S(C)(=O)=O)cc2F)CC1 [Compound A214, 4-[-(2-Fluoro-4-methanesulfonyl-phenyl)-1H-pyrazolo[3,4-d]-pyrimidin-4-ylsulfanyl]-piperidine-1-carboxylic acid isopropyl ester] |  |  | lowered blood glucose after challenge with glucose | 33%, (10)
CC(C)(C)OC(=O)N1CCC(Oc2ncnc3c2ncn3-c2ccc(S(C)(=O)=O)nc2)CC1 [Compound B5, 4-[9-(6-Methanesulfonyl-pyridin-3-yl)-9H-purin-6-yloxy]-piperidine-1-carboxylic acid tert-butyl ester] | 59.1 |  |  | 
CC(C)Oc1ccc(C(=O)N2CCC(Oc3ncnc4c3cnn4-c3ccc(S(C)(=O)=O)cc3F)CC2)nc1 [Compound A194, {4-[1-(2-Fluoro-4-methanesulfonyl-phenyl)-1H-pyrazolo[3,4-d]pyrimidin-4-yloxy]-piperidin-1-yl}-(5-isopropoxy-pyridin-2-yl)-methanone] |  | 15%, (30) | lowered blood glucose after challenge with glucose | 
